Test results as given in EP4512427A1, “ANTIBODY-DRUG CONJUGATES BASED ON MOLECULAR GLUE DEGRADERS AND USES THEREOF” (Mablink Bioscience, priority 2023, dated 2025).
Entries after “also recorded” stand apart in the source; their conditions may differ.

Tests used:
[1] = tested on: A549; assay: In vitro cytotoxicity assay (MTT); assay type: cell-based; settings: Homo sapiens, 144 h, 6 days incubation
How it was run: (§1)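 Cells were seeded at 1000–10 000 cells/well depending on line, left 24 h at 37°C, then exposed to serial compound dilutions for 6 days at 37°C. MTT was added for 1–4 h, formazan dissolved in acidified isopropanol, absorbance read at 570 nm (reference 690 nm); IC50 versus untreated cells came from dose-response fits.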

[2] = tested on: BXPC3; assay: In vitro cytotoxicity assay (MTT); assay type: cell-based; settings: Homo sapiens, BXPC-3, 144 h, 6 days incubation
How it was run: as §1

[3] = tested on: Caco-2; assay: In vitro cytotoxicity assay (MTT); assay type: cell-based; settings: Homo sapiens, 144 h, 6 days incubation
How it was run: as §1

[4] = tested on: HCT-116; assay: In vitro cytotoxicity assay (MTT); assay type: cell-based; settings: Homo sapiens, 144 h, 6 days incubation
How it was run: as §1

[5] = tested on: HT-29; assay: In vitro cytotoxicity assay (MTT); assay type: cell-based; settings: Homo sapiens, 144 h, 6 days incubation
How it was run: as §1

[6] = tested on: KB-1; assay: In vitro cytotoxicity assay (MTT); assay type: cell-based; settings: Homo sapiens, KB16, 144 h, 6 days incubation
How it was run: as §1

[7] = tested on: MCF-7; assay: In vitro cytotoxicity assay (MTT); assay type: cell-based; settings: Homo sapiens, MCF7, 144 h, 6 days incubation
How it was run: as §1

[8] = tested on: OE-19; assay: In vitro cytotoxicity assay (MTT); assay type: cell-based; settings: Homo sapiens, OE19, 144 h, 6 days incubation
How it was run: as §1

[9] = tested on: cancerous human cell lines; assay: In vitro cytotoxicity assay (MTT), side-by-side comparisons over the cell line panel; assay type: cell-based; settings: side-by-side comparison (Figures 1-3, Table 3), result in words
Description: In vitro cytotoxicity of compounds of the disclosure was assessed on several cancerous human cell lines. Cells were plated in 96-well plates at an appropriate density depending on the cell line (between 1000 and 10 000 cells/well in 100µL of appropriate culture media) and incubated at 37°C for 24 hours. Serial dilutions of the tested compound previously dissolved in culture media (50µL) were added, and incubation was carried at 37°C out for 6 days. MTT (5mg/mL in PBS, 20µL, Sigma-Aldrich) was added into the wells, and incubation was continued for 1 to 4 hours at 37°C. Culture media was then carefully removed, and well content was homogeneously dissolved with acidified isopropanol. Absorbance values were measured on a microplate reader using a wavelength of 570 nm (with a reference wavelength of 690 nm). The IC50 concentration values compared to untreated control cells were determined using inhibition dose response curve fitting (GraphPad Prism 9). Exatecan mesylate (cat#HY-13631A) and CR8 (CAS# 294646-77-8; cat#HY-18340) were purchased from MedChemExpress (China).

[10] = tested on: 340 protein kinases; assay: Kinase screening assay (radiometric 33PanQinase); assay type: biochemical, human; settings: 10 µM; most inhibited kinases: CMGC family, particularly CDKs (23 out of the 30 most inhibited were CDK/Cyclin complexes)
Description: Compound 2384 according to the disclosure was subjected to kinase screening assays (performed at Reaction Biology, Germany). The screening assay was performed at a final compound concentration of 10 µM. A radiometric protein kinase assay (33PanQinase® ActivityAssay) was used for measuring the kinase activity of 340 protein kinases. All kinase assays were performed in 96-well FlashPlates™ from Perkin Elmer (Boston, MA, USA) in a 50 µL reaction volume. […] All PKC assays (except the PKC-mu and the PKC-nu assay) additionally contained 1 mM CaCl2, 4 mM EDTA, 5 µg/m! Phosphatidylserine and 1 µg/m! 1,2-Dioleyl-glycerol. The CAMK1D, CAMK2A, CAMK2B, CAMK2D, CAMK2G, CAMK4, CAMKK1, CAMKK2, DAPK2, EEF2K, MYLK, MYLK2 and MYLK3 assays additionally contained 1 µg/ml Calmodulin and 0.5 mM CaCl2. The PRKG1 and PRKG2 assays additionally contained 1 µM cGMP. The DNA-PK assay additionally contained 2.5 µg/ml DNA. The protein kinase reaction cocktails were incubated at 30°C for 60 minutes. The reaction was stopped with 50 µl of 2 % (v/v) H3PO4, plates were aspirated and washed two times with 200 µL 0.9 % (w/v) NaCl. Incorporation of 33Pi (counting of "cpm") was determined with a microplate scintillation counter (Microbeta, Wallac). All protein kinase assays were performed with a BeckmanCoulter Biomek 2000/SL robotic system. […]

[11] = tested on: CycK; assay: CycK protein quantification by Western Blot; assay type: cell-based, human
Description: 1×10^6 JIMT-1 cells were plated in 3mL of DMEM/FBS 90:10 (v/v) in 6-well plates and incubated overnight. Cells were treated with the compound 2384 of the invention with or without the proteasome inhibitor MG-132 (MedChemExpress, Cat HY-13259) for 2h. Cells were harvested, and protein were extracted using complete RIPA buffer (RIPA buffer, 1 mM DTT, 1M NaF, 100 mM sodium orthovanadate, phosphatase inhibitor buffer and protease inhibitors) for 1 hour on ice. Lysate were centrifuged 15min at 12 000g at 4°C. and proteins were mixed with 4x Laemmli Sample Buffer (Bio-Rad), heated at 95 °C for 5 mins and separated by SDS PAGE (PROTEAN TGX Stain-Free Gels, Bio-Rad). Proteins were then transferred onto PVDF membrane (iBlot®2 PVDF stacks, Invitrogen) using the iBlot2 device (Invitrogen) and blocked with TBS buffer (Intercept® Blocking Buffer, LI-COR Biosciences). Primary antibodies were incubated overnight at 4°C and secondary antibodies (IRDye Infrared Dyes from LI-COR Biosciences) 1 hour at room temperature. Used primary antibody were: anti-CycK (cat#A301-939A, Bethyl Laboratories, dil. 1:1000) and anti-β-actin (cat#A5441, Sigma-Aldrich, dil. 1:5000). Membranes were scanned using a c500 Imaging System (Azure Biosystems) and densitometric quantification were performed using imaged software. Protein levels were normalized against β-actin.

## N[C@H]1CC[C@H](Nc2nc(NCc3ccc(-c4ccccn4)cc3)n3ncc(Br)c3n2)CC1 [Compound 2384]
[1]
  IC50: 0.56 nM
[2]
  IC50: 1.46 nM
[3]
  IC50: 6.64 nM
[4]
  IC50: 1.19 nM
[5]
  IC50: 0.22 nM
[6]
  IC50: 0.38 nM
[7]
  IC50: 3.42 nM
[8]
  IC50: 2.24 nM
[9]
  in vitro cytotoxicity potency: more potent compared to its isopropyl counterpart; also recorded: drastically improved low nanomolar potencies
[10]
  inhibition of kinase activity: more than 90%
[11]; 10nM, 2h treatment of JIMT-1 cells
  CycK degradation: complete CycK degradation
[11]; JIMT-1 cells, 1µM, 2h
  CycK protein content: decreased CycK protein content
[11]; JIMT-1 cells, 2h
  minimum effective dose for CycK degradation compared with CR8: approximately 10 times lower
[11]; JIMT-1 cells, combination with the proteasome inhibitor MG-132, 2h
  CycK protein content: restored the content in cycK protein
